In US20250222109A1, “STRUCTURED LIPID COMPOSITIONS” (Universität Bern, priority 2022, published 2025):

What was measured:
Type in all cases: physicochemical
[1] = SAXS phase identification of MLO-water mesophases (TIF-Gel); conditions: 5 mg of TOFA and 1 mg of TAC in 100 mg of gel
[2] = Drug encapsulation and distribution in TIF-Gel (WAXS, HPLC of gel layers)
Experimental: The tube was centrifuged and kept at rest for 24 hours. Subsequently, the gel was divided into 3 different layers (Top, Middle, and Bottom), and the drug content evaluated in each by HPLC.
WAXS measurements were performed on a Bruker AXS Micro, with a microfocused X-ray source, operating at voltage and filament current of 50 kV and 1000 μA, respectively. The Cu Kα radiation (λCu Kα=1.5418 Å) was collimated by a 2D Kratky collimator, and the data were collected by a 2D Pilatus 100K detector. The scattering vector Q=(4π/λ) sin θ, with 2θ being the scattering angle, was calibrated using silver behenate. Data were collected and azimuthally averaged using the Saxsgui software to yield 1D intensity vs. scattering vector Q, with a Q range from 13 to 18 nm-1. For all measurements the samples were placed inside a stainless-steel cell between two thin replaceable mica sheets and sealed by an O-ring, with a sample volume of 10 μL and a thickness of ˜1 mm.
The TAC loaded mesophase composition comprised: a) a carrier comprising: a1) water in an amount of 16% by weight of the carrier; and a2) MLO in an amount of 84% by weight of the carrier; and b) TAC in an amount of 1% by weight of the composition.

[3] = Stability study of TAC and TOFA-loaded TIF-Gel (HPLC); conditions: 4° C. and 25° C., one-month period
Experimental: The TAC and TOFA-loaded TIF-Gels were prepared according to Example 1. […] The TAC-loaded TIF-Gel composition comprised a) a carrier comprising: a1) water in an amount of 16% by weight of the carrier; and a2) MLO in an amount of 84% by weight of the carrier; and b) TAC in an amount of 1% by weight of the composition. […] At specific time points, an aliquot of the formulation was analysed at the HPLC, and the content of the drug was recorded. Data are expressed as relative percentage referred to day 0.

[4] = SAXS phase identification of MLO-water mesophases (TIF-Gel); conditions: 10% w/w of drug; lamellar at room temperature, cubic (Ia3d) at 38° C.
Experimental: SAXS measurements were used to determine the phase identity and symmetry of the produced LMPs. Measurements were performed on a Bruker AXS Micro, with a microfocused X-ray source, operating at voltage and filament current of 50 kV and 1000 μA, respectively. The Cu Kα radiation (λCu Kα=1.5418 Å) was collimated by a 2D Kratky collimator, and the data were collected by a 2D Pilatus 100K detector. The scattering vector Q=(4π/λ) sin θ, with 2θ being the scattering angle, was calibrated using silver behenate. Data were collected and azimuthally averaged using the Saxsgui software to yield 1D intensity vs. scattering vector Q, with a Q range from 0.001 to 0.5 Å^−1. For all measurements the samples were placed inside a stainless-steel cell between two thin replaceable mica sheets and sealed by an O-ring, with a sample volume of 10 μL and a thickness of ˜1 mm. Measurements were performed at 25° C., 30° C., 34° C., 36° C. and 38° C. Samples were equilibrated for 10 min before measurements whereas scattered intensity was collected over 30 min and over 60 min in case of lamellar phase. On the other hand, for the kinetic study, the sample was pre equilibrated at 25° C. and inserted in the sample holder kept at 38° C. and the scattered intensity collected over 5 min. To determine the structural parameters such as the size of the water channels, SAXS data information on the lattice were combined with the composition of the samples (R. Mezzenga, et al., Shear rheology of lyotropic liquid crystals: a case study, Langmuir 21, 3322-3333 (2005)).
MLO was used as the lipid component of the mesophases and mixed with weighed amounts of drugs (10% w/w) in sealed Pyrex tubes and alternatively centrifuging (10 min, 5000 g) several times at room temperature until a homogenous mixture was obtained. The mesophase was then equilibrated for 48 h at room temperature in the dark (see, FIGS. 1A and 1B).
Firstly, small angle X-ray scattering (SAXS) measurements were used to determine the optimal amount of water needed to obtain a lamellar phase which provides a transition to a cubic at 38° C. (FIGS. 2B and 2C). The X-ray beam directed at the gel results in a scattering pattern with a set of maxima, that correspond to sharp Bragg reflections characteristic of the long-range positional order. The sequence of Bragg reflections (and their ratio; listed in FIG. 2A) identifies the symmetry of the mesophase studied (See also FIGS. 1A and 1B).

## C=CC[C@@H]1/C=C(\C)C[C@H](C)C[C@H](OC)[C@H]2O[C@@](O)(C(=O)C(=O)N3CCCC[C@H]3C(=O)O[C@H](/C(C)=C/[C@@H]3CC[C@@H](O)[C@H](OC)C3)[C@H](C)[C@@H](O)CC1=O)[C@H](C)C[C@@H]2OC [TAC, tacrolimus]
[1]
  effect of drug entrapment on phase identity and thermal behaviour of the carrier gel: did not affect the phase identity and thermal behaviour
[2]; Top, Middle and Bottom gel layers, HPLC
  distribution of drug in the gel matrix: homogeneously distributed
[2]; embedded in the 3D gel structure
  drug crystallisation in the gel (WAXS): do not form crystals
[2]; encapsulated in the TIF-Gel
  encapsulation efficacy: 100%
[3]
  long-term stability of drug loaded into TIF-gel (drug content by HPLC): stable
[4]
  effect of drug on phase identity and transition temperature of the gel: did not affect the phase identity and the transition temperature
